In patent US20210196670A1, “ORAL FORMULATIONS OF LAVENDER AND CANNABINOIDS” (EMERALD HEALTH THERAPEUTICS CANADA INC., priority 2018, published 2021):

Test system: activation of NF-κB by TNFα
Test: NF-κB luciferase reporter assay (TNFα-stimulated NIH-3T3-KBFLuc cells)
Assay type: cell-based
Conditions: for Experiment 1 % of activity / Experiment 2 % of activity / Experiment 3 % of activity / Conclusions: Is inhibition of TNF activation of NF-κB observed?: cannabinoid 10 μM alone; for Experiment 1 % of activity / Experiment 2 % of activity / Experiment 3 % of activity: TNFα 30 ng/mL = 100%; for Conclusions: Is inhibition of TNF activation of NF-κB observed?: mean of three experiments
Method: The NF-kB pathway inhibition in response to treatment with the Cannabinoid and NHP either as single agents or in combination will be monitored using the Luciferase Reporter gene assay described in Del Prete et al, J. Nat. Prod.
For the anti-NF-κB activity stably transfected NIH-3T3-KBFLuc cells are treated with different concentration of NHP compounds for 30 minutes and then stimulated with TNF-α (30 ng/mL). After treatment, the cells are washed twice in phosphate-buffered saline and lysed in 25 mM Tris-phosphate pH 7.8, 8 mM MgCl2, 1 mM DTT, 1% Triton X-100, and 7% glycerol during 15 min at room temperature in a horizontal shaker. Luciferase activity in the supernatant is measured using a TriStar2 Berthold/LB942 multimode reader (Berthold Technologies) following the manufacturer's instructions of the luciferase assay kit (Promega, Madison, Wis., US). For NF-κB inhibition the RLU (relative light units) is calculated, and the results are normalized to 100% stimulation induced by induced by TNF-α (100% activation). The results are presented from three independent experiments.

SMILES | Experiment 1 % of activity | Experiment 2 % of activity | Experiment 3 % of activity | Conclusions: Is inhibition of TNF activation of NF-κB observed? | inhibition of NF-κB activity by the cannabinoid itself (10 μM, alone)
CCCCCc1cc(O)c2c(c1)OC(C)(C)[C@@H]1CCC(C)=C[C@@H]21 [THC, tetrahydrocannabinol] | 102.5% | 97.8% | 98.5% | Negative (Only treatments that the mean of three consecutive independent experiments shows a positive result (activity ≤50%) are considered inhibitory of NF-κB activity) | 
C=C(C)[C@@H]1CCC(C)=C[C@H]1c1c(O)cc(CCCCC)cc1O [CBD, cannabidiol] | 93.6% | 97.0% | 108.2% | Negative (Only treatments that the mean of three consecutive independent experiments shows a positive result (activity ≤50%) are considered inhibitory of NF-κB activity) | non-inhibitory
